Test results taken from paper PMC9867442, “Indole Derivatives Bearing Imidazole, Benzothiazole-2-Thione or Benzoxazole-2-Thione Moieties—Synthesis, Structure and Evaluation of Their Cytoprotective, Antioxidant, Antibacterial and Fungicidal Activities” (Molecules, 2023).

How the values were obtained:
[1] = Ferrous ions (Fe2+) chelating activity (ferrozine); conditions: 0.1 mg/mL, 10 min, room temperature
Experimental: Ferrous ions (Fe^2+) chelating activity was evaluated by inhibition of the formation of Fe^2+-ferrozine complex after incubation of the compounds tested with Fe^2+. The Fe^2+-chelating ability of compounds tested was determined by the absorbance of the ferrous ion-ferrozine complex at 562 nm. In brief, 0.1 mg/mL concentration of the compounds tested in 0.2 mL ethyl alcohol were added to a solution of 0.6 mM FeCl2 (0.05 mL). EDTA (ethylenediaminetetraacetic acid) was used as the standard EDTA chelating agent. The reaction was started by the addition of 5 mM ferrozine (0.05 mL) in ethyl alcohol and shaken vigorously immediately. The samples were stored for 10 min at room temperature (~22 °C). Following incubation, the absorbance (Abs) of the solutions was measured at 562 nm in a spectrophotometer. The percentage of inhibition of ferrozine—Fe^2+ complex formation was calculated using the equation: Fe^2+ chelating effect (%) = [1 − (Abs1/Abs0)] × 100% where Abs0 is the absorbance of the sample without the tested compound and Abs1 is the absorbance in the presence of the compound tested. Each sample was made in triplicate, and three independent experiments were performed.

Micrococcus luteus = experiment: Antibacterial well-diffusion method; assay type: cell-based; conditions: Micrococus luteus, 0.1 mL of compound in DMSO, 48 h, 27 °C
Experimental: (§1) The antimicrobial properties of compounds were determined against selected bacteria: Micrococcus luteus, Bacillus subtilis, Escherichia coli and Pseudomonas fluorescens which came from the collection of Pure Cultures of the Facility of Microbiology of the Department of Soil Science and Microbiology of the Poznan University of Life Sciences. The well-diffusion method was used to evaluate the antimicrobial properties of compounds. 6 mL each of liquidized broth medium was poured into sterile Petri dishes and allowed to solidify. After which, two sterile glass rings with a diameter of 0.5 cm were placed on the surface of each plate. Then 20 mL each of liquid broth medium containing suspensions of the tested bacterial strains at a density of 10^7 cells/cm3, obtained from 48-h cultures on broth […], was introduced. After the medium solidified, the glass rings were removed with a pencil, obtaining two wells on each plate. 0.1 mL of compound dissolved in pure dimethyl sulphoxide was introduced into one well, and 0.1 mL of pure dimethyl sulphoxide was introduced into the other well, which was as a control. Each compound was tested in four replicates. The plates were incubated for 48 h in a thermostat at 27 °C for M. luteus, B. subtilis and P. fluorescens cultures, and the E. coli culture at 37 °C. At the end of the incubation, the diameters of growth inhibition of the tested strains were measured using calipers.

Pseudomonas fluorescens = experiment: Antibacterial well-diffusion method; assay type: cell-based; conditions: 0.1 mL of compound in DMSO, 48 h, 27 °C
Experimental: as §1

Escherichia coli = experiment: Antibacterial well-diffusion method; assay type: cell-based; conditions: 0.1 mL of compound in DMSO, 48 h, 37 °C
Experimental: as §1

Bacillus subtilis = experiment: Antibacterial well-diffusion method; assay type: cell-based; conditions: 0.1 mL of compound in DMSO, 48 h, 27 °C
Experimental: as §1

[2] = system: Gloeophyllum trabeum (Gt); experiment: Antifungal agar-plate method; assay type: cell-based; conditions: for inhibition of growth at 0.0001 % / inhibition of growth at 0.001 % / inhibition of growth at 0.01 % / inhibition of growth at 0.1 %: Gloeophyllum trabeum, read-out: Antifungal activity (inhibition of mycelial growth)
Experimental: (§2) Fungal strains: Coriolus versicolor (Cv), Poria placenta (Pp), Coniophora puteana (Cp) and Gloeophyllum trabeum (Gt) were used as a test organism for the experimental determination of the antifungal activity of 1–11. The fungus were obtained from the collection of the Department of Wood Chemical Technology, Faculty of Forestry and Wood Technology, Poznań, University of Life Sciences, Poland. The fungal growth rates were measured in 90 mm-diameter plastic dishes using the agar-plate method, described by Ważny and Thorton. Five concentrations of gramine and its derivatives in the range of 0.1% to 0.00001% were studied. The compound was applied on the agar (2% agar and 5% malt-extract) prepared on the Petri dish and previously autoclaved. The combination of the compound and fungus was repeated three times. Given sample was centrally inoculated with a 5 mm diameter disc taken from the submargin of 5-day-old malt agar plates. The plates were incubated in darkness at 21 ± 2 °C and 70 ± 5% relative air humidity. The growth duration was determined by the total coverage of the reference plate. The radius of the area covered by the fungus compared with the reference agar plate was employed to calculate the effective doses, ED50, of preservative concentrations retarding the fungal growth rate by 50%.

Coniophora puteana (Cp) = experiment: Antifungal agar-plate method; assay type: cell-based; conditions: for inhibition of growth at 0.0001 % / inhibition of growth at 0.001 % / inhibition of growth at 0.01 % / inhibition of growth at 0.1 %: Coniophora puteana, read-out: Antifungal activity (inhibition of mycelial growth)
Experimental: as §2

Poria placenta (Pp) = experiment: Antifungal agar-plate method; assay type: cell-based; conditions: for inhibition of growth at 0.0001 % / inhibition of growth at 0.001 % / inhibition of growth at 0.01 % / inhibition of growth at 0.1 %: read-out: Antifungal activity (inhibition of mycelial growth)
Experimental: as §2

Coriolus versicolor (Cv) = experiment: Antifungal agar-plate method; assay type: cell-based; conditions: for inhibition of growth at 0.0001 % / inhibition of growth at 0.001 % / inhibition of growth at 0.01 % / inhibition of growth at 0.1 %: Trametes versicolor, read-out: Antifungal activity (inhibition of mycelial growth)
Experimental: as §2

Compound | Zone of Growth Inhibition (Micrococcus luteus) [mm] | Zone of Growth Inhibition (Pseudomonas fluorescens) [mm] | Zone of Growth Inhibition (Escherichia coli) [mm] | Zone of Growth Inhibition (Bacillus subtilis) [mm] | inhibition of growth at 0.0001 % ([2]; concentration 0.0001%) [%] | inhibition of growth at 0.001 % ([2]; concentration 0.001%) [%] | inhibition of growth at 0.01 % ([2]; concentration 0.01%) [%] | inhibition of growth at 0.1 % ([2]; concentration 0.1%) [%] | inhibition of growth at 0.0001 % (Coniophora puteana (Cp); concentration 0.0001%) [%] | inhibition of growth at 0.001 % (Coniophora puteana (Cp); concentration 0.001%) [%] | inhibition of growth at 0.01 % (Coniophora puteana (Cp); concentration 0.01%) [%] | inhibition of growth at 0.1 % (Coniophora puteana (Cp); concentration 0.1%) [%] | inhibition of growth at 0.0001 % (Poria placenta (Pp); concentration 0.0001%) [%] | inhibition of growth at 0.001 % (Poria placenta (Pp); concentration 0.001%) [%] | inhibition of growth at 0.01 % (Poria placenta (Pp); concentration 0.01%) [%] | inhibition of growth at 0.1 % (Poria placenta (Pp); concentration 0.1%) [%] | inhibition of growth at 0.0001 % (Coriolus versicolor (Cv); concentration 0.0001%) [%] | inhibition of growth at 0.001 % (Coriolus versicolor (Cv); concentration 0.001%) [%] | inhibition of growth at 0.01 % (Coriolus versicolor (Cv); concentration 0.01%) [%] | inhibition of growth at 0.1 % (Coriolus versicolor (Cv); concentration 0.1%) [%] | other results
3-((2-phenyl-2,5-dihydro-1H-imidazol-1-yl)methyl)-1H-indole [Compound 8] | 8.6 | 0 | 5 | 3.7 |  |  |  |  |  |  |  |  |  |  |  |  |  |  |  |  | Chelating activity [1]: 40%; Antifungal activity (inhibition of mycelial growth) ([2]; concentration 0.0001%): 13%; Antifungal activity (inhibition of mycelial growth) ([2]; concentration 0.001%): 18%; Antifungal activity (inhibition of mycelial growth) ([2]; concentration 0.01%): 53%; Antifungal activity (inhibition of mycelial growth) ([2]; concentration 0.1%): 100%; Antifungal activity (inhibition of mycelial growth) (Coniophora puteana (Cp); concentration 0.0001%): 0%; Antifungal activity (inhibition of mycelial growth) (Coniophora puteana (Cp); concentration 0.001%): 0%; Antifungal activity (inhibition of mycelial growth) (Coniophora puteana (Cp); concentration 0.01%): 48%; Antifungal activity (inhibition of mycelial growth) (Coniophora puteana (Cp); concentration 0.1%): 100%; Antifungal activity (inhibition of mycelial growth) (Poria placenta (Pp); concentration 0.0001%): 0%; Antifungal activity (inhibition of mycelial growth) (Poria placenta (Pp); concentration 0.001%): 17%; Antifungal activity (inhibition of mycelial growth) (Poria placenta (Pp); concentration 0.01%): 45%; Antifungal activity (inhibition of mycelial growth) (Poria placenta (Pp); concentration 0.1%): 100%; Antifungal activity (inhibition of mycelial growth) (Coriolus versicolor (Cv); concentration 0.0001%): 7%; Antifungal activity (inhibition of mycelial growth) (Coriolus versicolor (Cv); concentration 0.001%): 13%; Antifungal activity (inhibition of mycelial growth) (Coriolus versicolor (Cv); concentration 0.01%): 41%; Antifungal activity (inhibition of mycelial growth) (Coriolus versicolor (Cv); concentration 0.1%): 100%
CN(C)Cc1c[nH]c2ccccc12 [Compound 1, gramine, reference compound] | 0 | 13 | 0 | 0 | 12 | 12 | 17 | 100 | 41 | 40 | 51 | 100 | 14 | 25 | 40 | 100 | 18 | 22 | 35 | 100 | 
CCc1nc(C)cn1Cc1c[nH]c2ccccc12 [Compound 6, 3-((2-ethyl-4-methyl-1H-imidazol-1-yl)methyl)-1H-indole] | 6 | 2.3 | 3.5 | 2.4 | 13 | 9 | 27 | 100 | 40 | 37 | 49 | 100 | 4 | 0 | 41 | 100 | 19 | 19 | 44 | 100 | melting point: 186 to 189 °C
